Measured values from PubChem BioAssay (NCI).
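Five concentrations, 48 hours, 96-well plates. Abbreviation: GI50, concentration required for 50% inhibition of growth. TGI is the concentration that stops growth completely.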

Columns and labels:
Test in all cases: DTP human tumour cell line panel, 48 h
786-0 renal = system: 786-0 renal
A498 renal = system: A498 renal
A549 NSCLC = system: A549 NSCLC
ACHN renal = system: ACHN renal
BT-549 breast = system: BT-549 breast
CAKI-1 renal = system: CAKI-1 renal
CCRF-CEM leukemia = system: CCRF-CEM leukemia
COLO 205 colon = system: COLO 205 colon
DU-145 prostate = system: DU-145 prostate
EKVX NSCLC = system: EKVX NSCLC
HCC-2998 colon = system: HCC-2998 colon
HCT-116 colon = system: HCT-116 colon
HCT-15 colon = system: HCT-15 colon
HL-60(TB) leukemia = system: HL-60(TB) leukemia
HOP-62 NSCLC = system: HOP-62 NSCLC
HOP-92 NSCLC = system: HOP-92 NSCLC
HS 578T breast = system: HS 578T breast
HT29 colon = system: HT29 colon
IGROV1 ovarian = system: IGROV1 ovarian
K-562 leukemia = system: K-562 leukemia
KM12 colon = system: KM12 colon
LOX IMVI melanoma = system: LOX IMVI melanoma
M14 melanoma = system: M14 melanoma
MALME-3M melanoma = system: MALME-3M melanoma
MCF7 breast = system: MCF7 breast
MDA-MB-231 breast = system: MDA-MB-231 breast
MDA-MB-435 = system: MDA-MB-435
MDA-N = system: MDA-N
MOLT-4 leukemia = system: MOLT-4 leukemia
NCI-H226 lung = system: NCI-H226 lung
NCI-H23 lung = system: NCI-H23 lung
NCI-H460 lung = system: NCI-H460 lung
NCI-H522 lung = system: NCI-H522 lung
NCI/ADR-RES ovarian = system: NCI/ADR-RES ovarian
OVCAR-3 ovarian = system: OVCAR-3 ovarian
OVCAR-4 ovarian = system: OVCAR-4 ovarian
OVCAR-5 ovarian = system: OVCAR-5 ovarian
OVCAR-8 ovarian = system: OVCAR-8 ovarian
PC-3 prostate = system: PC-3 prostate
RPMI-8226 leukemia = system: RPMI-8226 leukemia
SF-268 CNS = system: SF-268 CNS
SF-295 CNS = system: SF-295 CNS
SF-539 CNS = system: SF-539 CNS
SK-MEL-2 melanoma = system: SK-MEL-2 melanoma
SK-MEL-28 melanoma = system: SK-MEL-28 melanoma
SK-MEL-5 melanoma = system: SK-MEL-5 melanoma
SK-OV-3 ovarian = system: SK-OV-3 ovarian
SN12C renal = system: SN12C renal
SNB-19 CNS = system: SNB-19 CNS
SNB-75 CNS = system: SNB-75 CNS
SR leukemia = system: SR leukemia
SW-620 colon = system: SW-620 colon
T-47D breast = system: T-47D breast
TK-10 renal = system: TK-10 renal
U251 CNS = system: U251 CNS
UACC-257 melanoma = system: UACC-257 melanoma
UACC-62 melanoma = system: UACC-62 melanoma
UO-31 renal = system: UO-31 renal
DMS 114 small cell lung = system: DMS 114 small cell lung
KM20L2 colon = system: KM20L2 colon
LXFL 529 NSCLC = system: LXFL 529 NSCLC
M19-MEL melanoma = system: M19-MEL melanoma
RXF 393 renal = system: RXF 393 renal
SNB-78 CNS = system: SNB-78 CNS

`CC[C@@]1(OC(=O)CN)C(=O)OCc2c1cc1n(c2=O)Cc2c-1nc1cc3c(cc1c2CCl)OCO3` was tested, and the GI50 (786-0 renal) was 10.2 nM, the TGI (786-0 renal) was over 33800 nM and the GI50 (A498 renal) was 66.1 nM. It also gave a TGI (A498 renal) of 1240 nM, a GI50 (A549 NSCLC) of 20.1 nM and a TGI (A549 NSCLC) of over 100000 nM. It also gave a GI50 (ACHN renal) of under 10 nM, a TGI (ACHN renal) of 244 nM and a GI50 (BT-549 breast) of 91.8 nM. It also gave a TGI (BT-549 breast) of 2540 nM, a GI50 (CAKI-1 renal) of under 10 nM and a TGI (CAKI-1 renal) of 1980 nM. It also gave a GI50 (CCRF-CEM leukemia) of under 10 nM, a TGI (CCRF-CEM leukemia) of over 100000 nM and a GI50 (COLO 205 colon) of 761 nM. For the same compound, the TGI (COLO 205 colon) was 3100 nM, the GI50 (DU-145 prostate) was under 10 nM and the TGI (DU-145 prostate) was over 33600 nM. It also gave a GI50 (EKVX NSCLC) of 1840 nM, a TGI (EKVX NSCLC) of 26500 nM and a GI50 (HCC-2998 colon) of 283 nM. For the same compound, the TGI (HCC-2998 colon) was 3760 nM, the GI50 (HCT-116 colon) was under 10 nM and the TGI (HCT-116 colon) was over 100000 nM. It also gave a GI50 (HCT-15 colon) of 372 nM, a TGI (HCT-15 colon) of 10200 nM and a GI50 (HL-60(TB) leukemia) of under 10 nM. It also gave a GI50 (HOP-62 NSCLC) of under 10 nM, a GI50 (HOP-92 NSCLC) of 72.4 nM and a TGI (HOP-92 NSCLC) of 7130 nM. It also gave a GI50 (HS 578T breast) of 762 nM, a TGI (HS 578T breast) of 5500 nM and a GI50 (HT29 colon) of 52 nM. The TGI (HT29 colon) was 1220 nM, the GI50 (IGROV1 ovarian) was 234 nM and the TGI (IGROV1 ovarian) was 15100 nM. For the same compound, the GI50 (K-562 leukemia) was 64.2 nM, the GI50 (KM12 colon) was 120 nM and the TGI (KM12 colon) was 390 nM. For the same compound, the GI50 (LOX IMVI melanoma) was under 10 nM, the TGI (LOX IMVI melanoma) was 5030 nM and the GI50 (M14 melanoma) was 10.2 nM. It also gave a GI50 (MALME-3M melanoma) of 50.1 nM, a TGI (MALME-3M melanoma) of 4440 nM and a GI50 (MCF7 breast) of under 10 nM. It also gave a TGI (MCF7 breast) of 12600 nM, a GI50 (MDA-MB-231 breast) of 1900 nM and a TGI (MDA-MB-231 breast) of over 34300 nM. For the same compound, the GI50 (MDA-MB-435) was 160 nM, the TGI (MDA-MB-435) was 4150 nM and the GI50 (MDA-N) was 88.5 nM. The TGI (MDA-N) was 645 nM, the GI50 (MOLT-4 leukemia) was under 10 nM and the GI50 (NCI-H226 lung) was 20.1 nM. The TGI (NCI-H226 lung) was 397 nM, the GI50 (NCI-H23 lung) was under 10 nM and the TGI (NCI-H23 lung) was 88.5 nM. The GI50 (NCI-H460 lung) was under 10 nM, the TGI (NCI-H460 lung) was 4440 nM and the GI50 (NCI-H522 lung) was 25.7 nM. For the same compound, the TGI (NCI-H522 lung) was 2190 nM, the GI50 (NCI/ADR-RES ovarian) was under 10 nM and the TGI (NCI/ADR-RES ovarian) was 58.3 nM. For the same compound, the GI50 (OVCAR-3 ovarian) was 372 nM, the TGI (OVCAR-3 ovarian) was 4100 nM and the GI50 (OVCAR-4 ovarian) was 381 nM. For the same compound, the TGI (OVCAR-4 ovarian) was 11300 nM, the GI50 (OVCAR-5 ovarian) was 1030 nM and the TGI (OVCAR-5 ovarian) was 13000 nM. For the same compound, the GI50 (OVCAR-8 ovarian) was under 10.5 nM, the TGI (OVCAR-8 ovarian) was 354 nM and the GI50 (PC-3 prostate) was 113 nM. For the same compound, the TGI (PC-3 prostate) was 21100 nM, the GI50 (RPMI-8226 leukemia) was 37.4 nM and the TGI (RPMI-8226 leukemia) was 597 nM. The GI50 (SF-268 CNS) was under 10 nM, the TGI (SF-268 CNS) was 516 nM and the GI50 (SF-295 CNS) was under 10 nM. The TGI (SF-295 CNS) was 11200 nM, the GI50 (SF-539 CNS) was under 10 nM and the TGI (SF-539 CNS) was under 31.8 nM. For the same compound, the GI50 (SK-MEL-2 melanoma) was 1240 nM, the TGI (SK-MEL-2 melanoma) was 5040 nM and the GI50 (SK-MEL-28 melanoma) was 474 nM. For the same compound, the TGI (SK-MEL-28 melanoma) was 20500 nM, the GI50 (SK-MEL-5 melanoma) was under 11.8 nM and the TGI (SK-MEL-5 melanoma) was 500 nM. The GI50 (SK-OV-3 ovarian) was 375 nM, the TGI (SK-OV-3 ovarian) was over 31600 nM and the GI50 (SN12C renal) was under 11.7 nM. The TGI (SN12C renal) was 3760 nM, the GI50 (SNB-19 CNS) was under 10 nM and the TGI (SNB-19 CNS) was 13700 nM. It also gave a GI50 (SNB-75 CNS) of under 24.4 nM, a GI50 (SR leukemia) of under 10 nM and a TGI (SR leukemia) of over 100000 nM. For the same compound, the GI50 (SW-620 colon) was under 19.6 nM, the TGI (SW-620 colon) was 32600 nM and the GI50 (T-47D breast) was under 10 nM. The TGI (T-47D breast) was 7790 nM, the GI50 (TK-10 renal) was 947 nM and the TGI (TK-10 renal) was 7620 nM. The GI50 (U251 CNS) was 18.5 nM, the TGI (U251 CNS) was over 42900 nM and the GI50 (UACC-257 melanoma) was 1020 nM. For the same compound, the TGI (UACC-257 melanoma) was 15100 nM, the GI50 (UACC-62 melanoma) was under 10 nM and the TGI (UACC-62 melanoma) was 2280 nM. The GI50 (UO-31 renal) was under 10 nM and the TGI (UO-31 renal) was 1440 nM.

`COc1ccc2c(c1)CC[C@@H]1C2CC[C@](C)(C#N)C1CC#N` (some centres undefined) showed a TGI (786-0 renal) of over 100000 nM, a TGI (A498 renal) of over 100000 nM and a TGI (ACHN renal) of over 100000 nM. It also gave a TGI (CCRF-CEM leukemia) of over 100000 nM, a TGI (COLO 205 colon) of over 100000 nM and a TGI (DMS 114 small cell lung) of over 100000 nM. The TGI (HCT-116 colon) was over 100000 nM, the TGI (HOP-62 NSCLC) was over 100000 nM and the TGI (HOP-92 NSCLC) was over 100000 nM. It also gave a TGI (HT29 colon) of over 100000 nM, a TGI (IGROV1 ovarian) of over 100000 nM and a TGI (K-562 leukemia) of over 100000 nM. The TGI (KM12 colon) was over 100000 nM, the TGI (KM20L2 colon) was over 100000 nM and the TGI (LXFL 529 NSCLC) was over 100000 nM. The TGI (M14 melanoma) was over 100000 nM, the TGI (M19-MEL melanoma) was over 100000 nM and the TGI (MALME-3M melanoma) was over 100000 nM. It also gave a TGI (MOLT-4 leukemia) of over 100000 nM, a TGI (NCI-H23 lung) of over 100000 nM and a TGI (NCI-H460 lung) of over 100000 nM. For the same compound, the TGI (NCI-H522 lung) was over 100000 nM, the TGI (OVCAR-3 ovarian) was over 100000 nM and the TGI (OVCAR-4 ovarian) was over 100000 nM. It also gave a TGI (OVCAR-5 ovarian) of over 100000 nM, a TGI (RPMI-8226 leukemia) of over 100000 nM and a TGI (RXF 393 renal) of over 100000 nM. The TGI (SF-268 CNS) was over 100000 nM, the TGI (SF-295 CNS) was over 100000 nM and the TGI (SK-MEL-28 melanoma) was over 100000 nM. For the same compound, the TGI (SK-OV-3 ovarian) was over 100000 nM, the TGI (SNB-19 CNS) was over 100000 nM and the TGI (SNB-75 CNS) was over 100000 nM. For the same compound, the TGI (SNB-78 CNS) was over 100000 nM, the TGI (SR leukemia) was over 100000 nM and the TGI (U251 CNS) was over 100000 nM. For the same compound, the TGI (UACC-257 melanoma) was over 100000 nM, the TGI (UACC-62 melanoma) was over 100000 nM and the TGI (UO-31 renal) was over 100000 nM.
